This assay deals with HT-1080. The assay is described as follows: Induction of apoptosis in human HT-1080 cells assessed as viable cells at 6 uM incubated for 12 hrs by Annexin V-FITC/PI staining based flow cytometric analysis (reference value: 96.65 %). In kind it is functional. Particulars: read-out: Activity.

Structures are written as SMILES.

`COc1cc(O)c(-c2cc(-c3ccc(O)cc3)nc(N3CCNCC3)n2)cc1CC=C(C)C`: the viability at 6 µM came out at 91.5%.

For the origin of these results see ChEMBL document CHEMBL5608173, “Discovery of novel natural-product-derived mutant isocitrate dehydrogenases 1 inhibitors: Structure-based virtual screening, biological evaluation and structure-activity relationship study” (Eur J Med Chem, 2024).
